# Laboratory results: patent publication US20190374509A1, “Methods of Using Metamizole for Treatment of Pyrexia in Equines” (Kindred Biosciences, Inc., priority 2018, published 2019)
# Read-outs that look alike come from different tables or passages of the source.
# How the values were obtained:
# Assay type in all cases: in vivo
# horses [1] = assay: Margin of safety study, IV three times daily for 9 days: necropsy, organ weights, histopathology; conditions: for Liver (absolute weight) LS Means / Liver (relative to body weight) LS Means: necropsy
# Description: (§1) A study was conducted to evaluate the margin of safety of metamizole when administered intravenously to horses for 9 days at doses of 0 mg/kg (0×), 30 mg/kg (1×), 60 mg/kg (2×), and 90 mg/kg (3×) of body weight three times daily (TID), every 8 hours±30 min.
# (§2) Treatment phase involved administration of the investigational drug or placebo. The investigational drug was a sterile injectable formulation of dipyrone (Zimeta™, Corden Pharma, Caponago, Italy) (500 mg/mL) in 100 mL glass bottles. The placebo was sterile injectable saline (Nova-Tech Inc, Grand Island, NE) (0.9% sodium chloride) in 500 mL plastic bottles labeled for veterinary use. Dipyrone treatment groups were 30 mg/kg (1×), 60 mg/kg (2×), and 90 mg/kg (3×). Placebo treatment group was saline administered at a volume to match the 3× dipyrone group (0×). The dose was calculated based on body weight and administered three times daily for nine consecutive days. Due to the large volume of injection at the higher dose groups, treatment was administered via indwelling intravenous (IV) catheters. Intravenous catheters were placed using standard techniques. Horses were sedated with xylazine (AnaSed® LA, VetOne, MWI, Boise, Id.) and the skin was desensitized with subcutaneous injection of lidocaine (VetOne, MWI, Boise, Id.). Intravenous catheters were replaced at the discretion of the study director and were maintained with heparinized saline flush prior to and following dose administration.
# (§3) Randomization occurred on Study Day −1. […] .
# For continuous endpoints with single post-treatment measures (organ weight and organ weight relative to body weight), analysis of variance (ANOVA) was used to evaluate a model including treatment, sex, and treatment by sex interaction as fixed effects. If treatment by sex interaction was significant, within sex pair-wise comparison of each treatment group versus placebo using linear contrasts were performed. If treatment by sex interaction was not significant and treatment effect was significant, pair-wise comparison of each treatment group versus placebo for pooled sex were performed. In particular, sex specific organ weights (ovaries) were analyzed by ANOVA including only treatment as a fixed effect.
# horses [2] = conditions: 8 horses per group
# Description: as §1, §2, §3
# All 32 horses were acclimated prior to study initiation and started the treatment phase healthy. During the study, numerous horses in all groups including placebo developed clinical signs of pneumonia likely due to exposure and incubation of respiratory pathogens prior to the start of the treatment phase. The mean time to development of pneumonia was 6.9 days with a range of 4.3 to 8.3 days. […] The other 31 horses completed the study. At the second gastroscopy examination, completed just prior to the treatment phase, one horse was noted to have purulent material draining from the guttural pouch. […]
# horses [3] = assay: Coagulation effects study, IV BID or TID for 9 days: clinical signs
# Description: The purpose of this study was to evaluate the effects of metamizole on coagulation parameters and pharmacokinetic parameters when administered intravenously to horses for 9 days at doses of 0 mg/kg (0×), 30 mg/kg (1×), 60 mg/kg (2×), and 90 mg/kg (3×) of body weight. Doses of 0×, 1×, 2×, and 3× were administered twice daily (BID), every 12 hours±120 min. Doses of 1× and 2× were administered three times daily (TID), every 8 hours±120 min. Metamizole plasma concentrations were assessed in the 1×BID, 3×BID, 1×TID, and 2×TID treatments groups to evaluate for evidence of accumulation.
# The investigational drug was a sterile injectable formulation of dipyrone (Zimeta®, Corden Pharma, Caponago, Italy) (500 mg/mL) in 100 mL glass bottles. The placebo was sterile injectable saline (0.9% Saline, Nova-Tech Inc, Grand Island, NE) (0.9% sodium chloride) in 500 mL plastic bottles labeled for veterinary use. Dipyrone treatment groups were 30 mg/kg/dose (1×) administered twice daily (BID), 1× administered three times daily (TID), 60 mg/kg/dose (2×) BID, 2×TID, and 90 mg/kg/dose (3×) BID. Placebo treatment group, (0×) BID, were saline administered at a volume to match the 1× dipyrone group. The dose was calculated based on body weight and administered for nine consecutive days (Days 1-9). Due to the large volume of the injection at the higher test intervals, treatment was administered via indwelling intravenous catheters. Intravenous catheters were placed using standard techniques. Horses were sedated with xylazine (XylaMed™, VetOne, MWI, Boise, Id.) (0.6 mg/kg, IV) and the skin was desensitized with subcutaneous injection of lidocaine (Lidocaine 2%, VetOne, MWI, Boise, Id.). Intravenous catheters were replaced at the discretion of the study director and were maintained with heparinized saline flush prior to, and following, dose administration.
# Horses were acclimated to the facility for 14 days prior to start of the treatment phase. […] On Day −1, thirty-two horses were randomized by the study statistician and moved to their assigned pens. On Day −1 (baseline), Day 4, and Day 10 horses had blood collected for a coagulation panel. A physical exam was performed prior to study start and on Day 10.
# [4] = 1X BID, 30 mg/kg IV twice daily, n = 6
# [5] = 1X TID, 30 mg/kg IV three times daily, n = 4
# [6] = 2X BID, 60 mg/kg IV twice daily, n = 6
# [7] = 2X TID, 60 mg/kg IV three times daily, n = 6
# [8] = 3X BID, 90 mg/kg IV twice daily, n = 6
smiles,measurement,setting,value
"Cc1c(N(C)CS(=O)(=O)O)c(=O)n(-c2ccccc2)n1C [dipyrone, [(2,3-dihydro-1,5-dimethyl-3-oxo-2-phenyl-1H-pyrazol-4-yl)methylamino] methanesulfonic acid]",Liver (absolute weight) LS Means,"horses [1]; 1X, 30 mg/kg IV every 8 hours",6280.00 g
same,Liver (relative to body weight) LS Means,"horses [1]; 1X, 30 mg/kg IV every 8 hours",13.69
same,Liver (absolute weight) LS Means,"horses [1]; 2X, 60 mg/kg IV every 8 hours",6892.50 g
same,Liver (relative to body weight) LS Means,"horses [1]; 2X, 60 mg/kg IV every 8 hours",15.28
same,Liver (absolute weight) LS Means,"horses [1]; 3X, 90 mg/kg IV every 8 hours",7765.21 g
same,Liver (relative to body weight) LS Means,"horses [1]; 3X, 90 mg/kg IV every 8 hours",16.38
same,Effect on absolute and relative liver weights,"horses [1]; 30, 60, 90 mg/kg IV every 8 hours for 9 days vs placebo",statistically significant increase in absolute and relative liver weights
same,"Renal, hepatic and gastrointestinal gross necropsy and histopathology evaluation",horses [1]; up to 90 mg/kg IV every 8 hours for 9 days,no significant findings
same,"Nasal Discharge, number of horses","horses [2]; 1X, 30 mg/kg IV every 8 hours",1
same,"Nasal Discharge, number of horses","horses [2]; 2X, 60 mg/kg IV every 8 hours",2
same,"Nasal Discharge, number of horses","horses [2]; 3X, 90 mg/kg IV every 8 hours",1
same,"Depression, number of horses",horses [3]; [4],0
same,"Dermatitis, number of horses",horses [3]; [4],0
same,"Minor gastrointestinal signs or inappetence, number of horses",horses [3]; [4],2
same,"Minor respiratory signs (nasal discharge and or cough), number of horses",horses [3]; [4],1
same,"Ocular discharge, number of horses",horses [3]; [4],0
same,"Phlebitis and other catheter-related changes to jugular vein, number of horses",horses [3]; [4],2
same,"Suture site abscesses, number of horses",horses [3]; [4],1
same,"Depression, number of horses",horses [3]; [5],0
same,"Dermatitis, number of horses",horses [3]; [5],0
same,"Minor gastrointestinal signs or inappetence, number of horses",horses [3]; [5],1
same,"Minor respiratory signs (nasal discharge and or cough), number of horses",horses [3]; [5],0
same,"Ocular discharge, number of horses",horses [3]; [5],0
same,"Phlebitis and other catheter-related changes to jugular vein, number of horses",horses [3]; [5],1
same,"Suture site abscesses, number of horses",horses [3]; [5],0
same,"Depression, number of horses",horses [3]; [6],0
same,"Dermatitis, number of horses",horses [3]; [6],0
same,"Minor gastrointestinal signs or inappetence, number of horses",horses [3]; [6],2
same,"Minor respiratory signs (nasal discharge and or cough), number of horses",horses [3]; [6],0
same,"Ocular discharge, number of horses",horses [3]; [6],1
same,"Phlebitis and other catheter-related changes to jugular vein, number of horses",horses [3]; [6],3
same,"Suture site abscesses, number of horses",horses [3]; [6],0
same,"Depression, number of horses",horses [3]; [7],1
same,"Dermatitis, number of horses",horses [3]; [7],0
same,"Minor gastrointestinal signs or inappetence, number of horses",horses [3]; [7],2
same,"Minor respiratory signs (nasal discharge and or cough), number of horses",horses [3]; [7],0
same,"Ocular discharge, number of horses",horses [3]; [7],0
same,"Phlebitis and other catheter-related changes to jugular vein, number of horses",horses [3]; [7],2
same,"Suture site abscesses, number of horses",horses [3]; [7],1
same,"Depression, number of horses",horses [3]; [8],0
same,"Dermatitis, number of horses",horses [3]; [8],1
same,"Minor gastrointestinal signs or inappetence, number of horses",horses [3]; [8],1
same,"Minor respiratory signs (nasal discharge and or cough), number of horses",horses [3]; [8],1
same,"Ocular discharge, number of horses",horses [3]; [8],0
same,"Phlebitis and other catheter-related changes to jugular vein, number of horses",horses [3]; [8],3
same,"Suture site abscesses, number of horses",horses [3]; [8],0
same,Abnormal clinical signs in the treatment period,"horses [3]; all treatment groups (30-90 mg/kg IV BID or TID, 9 days)",none were considered treatment related
